The text below walks through data of patent US12617769B2, “Chemical compound as thyroid hormone beta receptor agonist and use thereof” (SUNSHINE LAKE PHARMA CO., LTD., priority 2019, dated 2026).

The target in one experiment is T1, TRα (Homo sapiens, UniProt P10827).
T1 construct: Then 5 μL of 4×TRα-LBD or TRP-LBD; purchased Invitrogen PV4687
Kind of experiment: In vitro binding activity, LanthaScreen TR-FRET Thyroid Receptor alfa Coactivator Assay. The settings on record: TRα-LBD. The protocol: (§1) 2. Detection of TRα or TRβ Binding Activity In Vitro of the Compound of the Present Invention
(§2) • LanthaScreen TR-FRET Thyroid Receptor beta Coactivator Assay kit was purchased from Invitrogen, Cat. No. PV4686; • LanthaScreen TR-FRET Thyroid Receptor alfa Coactivator Assay kit was purchased from Invitrogen, Cat. No. PV4687. Test Method:
(§3) This method was tested using LanthaScreen TR-FRET Thyroid Receptor beta/alfa Coactivator Assay kit. The test compound was dissolved in DMSO and diluted three-fold to obtain a total of 10 concentrations, then the compounds were diluted into solutions containing 2% DMSO with TR-FRET Coregulator Buffer C in the kit. 10 μL of the compounds containing 2% DMSO were taken to a 384-well plate. Then 5 μL of 4×TRα-LBD or TRP-LBD and 5 μL of a mixture containing 0.4 μM fluorescein-SRC2-2 and 8 nM Tb anti-GST antibody were added to each well. After mixing well, the compounds were incubated at room temperature in the dark for 1 h. After 1 h, the fluorescence value (RFU) was read at 520 nm and 495 nm using PHERAstar FSX microplate reader from BMG LABTECH. The emission signal at 520 nm was divided by the emission signal at 495 nm to calculate the TR-FRET ratio.
In general terms: TR-FRET usually uses a lanthanide donor and a delayed reading to cut background.

A further experiment has as its target T2, TRβ (Homo sapiens, UniProt P10828).
T2 construct: Then 5 μL of 4×TRα-LBD or TRP-LBD; purchased Invitrogen PV4686
T2 sequence (P10828 217-461 limits assumed): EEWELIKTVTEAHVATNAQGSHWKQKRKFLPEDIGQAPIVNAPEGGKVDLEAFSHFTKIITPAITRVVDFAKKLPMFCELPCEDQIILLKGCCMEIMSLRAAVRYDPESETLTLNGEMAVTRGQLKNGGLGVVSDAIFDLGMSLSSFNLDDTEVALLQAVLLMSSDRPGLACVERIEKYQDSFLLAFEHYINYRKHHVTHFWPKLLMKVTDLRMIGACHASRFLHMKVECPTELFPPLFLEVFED
In words: In vitro binding activity, LanthaScreen TR-FRET Thyroid Receptor beta Coactivator Assay. Particulars: TRβ-LBD. The method, then: as §1, §2, §3

T1 sequence (P10827 163-410 isoform P10827-2 limits assumed, other chains not shown): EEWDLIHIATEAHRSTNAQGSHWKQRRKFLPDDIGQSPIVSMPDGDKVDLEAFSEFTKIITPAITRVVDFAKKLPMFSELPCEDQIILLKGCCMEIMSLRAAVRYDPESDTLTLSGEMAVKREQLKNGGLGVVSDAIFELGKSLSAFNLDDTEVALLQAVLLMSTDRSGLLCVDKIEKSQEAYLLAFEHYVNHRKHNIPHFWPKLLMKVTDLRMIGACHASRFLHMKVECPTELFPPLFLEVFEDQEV

One may read the EC50 as the concentration at which the effect is half-maximal. As to `N#Cc1nn(-c2cc(Cl)c(Oc3ccc(=O)n(Cc4ccccc4)c3)c(Cl)c2)c(=O)[nH]c1=O` [Example 1, 2-[4-[(1-benzyl-6-oxo-1,6-dihydropyridin-3-yl)oxy]-3,5-dichlorophenyl]-3,5-dioxo-1,2,4-triazine-6-carbonitrile], the values for the EC50 at TRα and on TRβ were 3030 nM and 60 nM, respectively.
As for `N#Cc1nn(-c2cc(Cl)c(Oc3ccc(=O)n(Cc4ccccc4)n3)c(Cl)c2)c(=O)[nH]c1=O` [Example 2, 2-[4-(1-benzyl-6-oxo-1,6-dihydropyridazin-3-yl)oxy-3,5-dichlorophenyl]-3,5-dioxo-1,2,4-triazine-6-carbonitrile], the EC50 on TRα was above 100000 nM; on TRβ, above 10000 nM.
The matching figures for `CC(C)n1cc(Oc2c(Cl)cc(-n3nc(C#N)c(=O)[nH]c3=O)cc2Cl)ccc1=O` [Example 4, 2-[3,5-dichloro-4-[(1-isopropyl-6-oxo-1,6-dihydropyridin-3-yl)oxy]phenyl]-3,5-dioxo-1,2,4-triazine-6-carbonitrile]: above 100000 nM and 500 nM.
Turning to `N#Cc1nn(-c2cc(Cl)c(Oc3ccc(=O)n(-c4ccc(F)cc4)n3)c(Cl)c2)c(=O)[nH]c1=O` [Example 8, 2-[3,5-dichloro-4-[1-(4-fluorophenyl)-6-oxo-1,6-dihydropyridazin-3-yl]oxy-phenyl]-3,5-dioxo-1,2,4-triazine-6-carbonitrile], the EC50 at TRα was above 100000 nM; on TRβ, above 10000 nM.
For `CC(c1ccccc1)n1nc(Oc2c(Cl)cc(-n3nc(C#N)c(=O)[nH]c3=O)cc2Cl)ccc1=O` (stereo not shown) [Example 9, 2-[3,5-dichloro-4-[[6-oxo-1-(1-phenethyl)-1,6-dihydropyridazin-3-yl]oxyl]phenyl]-3,5-dioxo-1,2,4-triazine-6-carbonitrile], in that order: above 100000 nM and above 10000 nM.
Take `N#Cc1nn(-c2cc(Cl)c(Oc3cnc(=O)n(Cc4ccccc4)c3)c(Cl)c2)c(=O)[nH]c1=O` [Example 10, 2-[4-(1-benzyl-2-oxo-1,2-dihydropyrimidin-5-yl)oxy-3,5-dichlorophenyl]-3,5-dioxo-1,2,4-triazine-6-carbonitrile]: the figures for the EC50 at TRα and on TRβ were above 100000 nM and above 10000 nM, respectively.
Take `N#Cc1nn(-c2cc(Cl)c(Oc3ccc(=O)n(Cc4ccc(F)c(F)c4)c3)c(Cl)c2)c(=O)[nH]c1=O` [Example 11, 2-[3,5-dichloro-4-[[1-(3,4-difluorobenzyl)-6-oxo-1,6-dihydropyridin-3-yl]oxy]phenyl]-3,5-dioxo-1,2,4-triazine-6-carbonitrile]: the results for the EC50 at TRα and at TRβ were 670 nM and 22 nM, respectively.
With `N#Cc1nn(-c2cc(Cl)c(Oc3ccc(=O)n(Cc4ccc(OC(F)(F)F)cc4)c3)c(Cl)c2)c(=O)[nH]c1=O` [Example 12, 2-[3,5-dichloro-4[[6-oxo-1-[4-(trifluoromethoxy)benzyl]-1,6-dihydropyridin-3-yl]oxy]phenyl]-3,5-dioxo-1,2,4-triazine-6-carbonitrile], the results for the EC50 at TRα and at TRβ were above 100000 nM and 1340 nM, respectively.
For `N#Cc1nn(-c2cc(Cl)c(Oc3ccc(=O)n(Cc4ccc(F)cc4)c3)c(Cl)c2)c(=O)[nH]c1=O` [Example 13, 2-[3,5-dichloro-4-[[1-(4-fluorobenzyl)-6-oxo-1,6-dihydropyridin-3-yl]oxy]phenyl]-3,5-dioxo-1,2,4-triazine-6-carbonitrile], the EC50 on TRα was found to be 600 nM; at TRβ it was 20 nM.
With `N#Cc1nn(-c2cc(Cl)c(Oc3ccc(=O)n(Cc4cccc(C(F)(F)F)c4)c3)c(Cl)c2)c(=O)[nH]c1=O` [Example 14, 2-[3,5-dichloro-4-[[6-oxo-1-[3-(trifluoromethyl)benzyl]-1,6-dihydropyridin-3-yl]oxy]phenyl]-3,5-dioxo-1,2,4-triazine-6-carbonitrile], the EC50 at TRα was determined as 5740 nM; on TRβ, 350 nM.
Take `CCOC(=O)Cn1cc(Oc2c(Cl)cc(-n3nc(C#N)c(=O)[nH]c3=O)cc2Cl)ccc1=O` [Example 17, Ethyl 2-[5-[2,6-dichloro-4-(6-cyano-3,5-dioxo-1,2,4-triazin-2-yl)phenoxy]-2-oxy-pyridine-1(2H)-yl] acetate]: the EC50 at TRα worked out at 15400 nM; at TRβ it was 350 nM.
The matching figures for `COCCn1cc(Oc2c(Cl)cc(-n3nc(C#N)c(=O)[nH]c3=O)cc2Cl)ccc1=O` [Example 18, 2-[3,5-dichloro-4-[[1-(2-methoxyethyl)-6-oxo-1,6-dihydropyridin-3-yl]oxy]phenyl]-3,5-dioxo-1,2,4-triazine-6-carbonitrile]: 1350 nM and 86 nM.
For `CCOC(=O)Cn1nc(Oc2c(Cl)cc(-n3nc(C#N)c(=O)[nH]c3=O)cc2Cl)ccc1=O` [Example 19, Ethyl 2-[3-[2,6-dichloro-4-(6-cyano-3,5-dioxo-1,2,4-triazin-2-yl)phenoxy]-6-oxy-pyridazine-1(6H)-yl] acetate], the EC50 on TRα is above 100000 nM; on TRβ it was above 10000 nM.
For `N#Cc1nn(-c2cc(Cl)c(Oc3cnc(=O)n(Cc4ccc(F)cc4)c3)c(Cl)c2)c(=O)[nH]c1=O` [Example 20, 2-[3,5-dichloro-4-[1-(4-fluorobenzyl)-2-oxo-1,2-dihydropyrimidin-5-yl]oxy-phenyl]-3,5-dioxo-1,2,4-triazine-6-carbonitrile], in that order: above 100000 nM and 7370 nM.
With `COc1cccc(Cn2cc(Oc3c(Cl)cc(-n4nc(C#N)c(=O)[nH]c4=O)cc3Cl)ccc2=O)c1` [Example 22, 2-[3,5-dichloro-4-[[1-[(3-methoxyphenyl)methyl]-6-oxopyridin-3-yl]oxy]phenyl]-3,5-dioxo-1,2,4-triazine-6-carbonitrile], the figures for the EC50 on TRα and on TRβ were above 100000 nM and 690 nM, respectively.
Consider `Cc1ccc(Cn2cc(Oc3c(Cl)cc(-n4nc(C#N)c(=O)[nH]c4=O)cc3Cl)ccc2=O)cc1` [Example 23, 2-[3,5-dichloro-4-[[1-(4-methylbenzyl)-6-oxo-1,6-dihydropyridin-3-yl]oxy]phenyl]-3,5-dioxo-1,2,4-triazine-6-carbonitrile], for which the EC50 on TRα stood at 3000 nM; at TRβ it was 60 nM.
Turning to `CCOC(=O)C(C)n1cc(Oc2c(Cl)cc(-n3nc(C#N)c(=O)[nH]c3=O)cc2Cl)ccc1=O` (stereo not shown) [Example 24, Ethyl 2-(5-(2,6-dichloro-4-(6-cyano-3,5-dioxo-1,2,4-triazin-2-yl)phenoxy)-2-oxypyridine-1(2H)-yl)propionate], the EC50 at TRα turned out to be 570 nM; at TRβ, 20 nM.
In the case of `N#Cc1nn(-c2cc(Cl)c(Oc3ccc(=O)n(CC4CCOCC4)c3)c(Cl)c2)c(=O)[nH]c1=O` [Example 25, 2-[3,5-dichloro-4-[[6-oxo-1-((tetrahydropyran-4-yl)methyl)-1,6-dihydropyridin-3-yl]oxy]phenyl]-3,5-dioxo-1,2,4-triazine-6-carbonitrile], the EC50 at TRα came to 6660 nM; on TRβ, 140 nM.
For the molecule `CCOC(=O)c1nn(-c2cc(Cl)c(Oc3ccc(=O)n(Cc4ccccc4)c3)c(Cl)c2)c(=O)[nH]c1=O` [Example 27, Ethyl 2-(4-((1-benzyl-6-oxo-1,6-dihydropyridin-3-yl)oxy)-3,5-dichlorophenyl)-3,5-dioxo-1,2,4-triazine-6-carboxylate], the results for the EC50 on TRα and on TRβ were above 100000 nM and 1490 nM, respectively.
For `NC(=O)c1nn(-c2cc(Cl)c(Oc3ccc(=O)n(Cc4ccccc4)c3)c(Cl)c2)c(=O)[nH]c1=O` [Example 30, 2-(4-((1-benzyl-6-oxo-1,6-dihydropyridin-3-yl)oxy)-3,5-dichlorophenyl)-3,5-dioxo-2,3,4,5-tetrahydro-1,2,4-triazine-6-carboxamide], the EC50 on TRα is above 100000 nM; on TRβ, 3760 nM.
For `COc1ccc(Cn2cc(Oc3c(Cl)cc(-n4nc(C#N)c(=O)[nH]c4=O)cc3Cl)ccc2=O)cc1` [Example 31, 2-(3,5-dichloro-4-((1-(4-methoxybenzyl)-6-oxo-1,6-dihydropyridin-3-yl)oxy)phenyl)-3,5-dioxo-2,3,4,5-tetrahydro-1,2,4-triazine-6-carbonitrile], the figures for the EC50 on TRα and at TRβ were 4400 nM and 94 nM, respectively.
For the molecule `N#Cc1nn(-c2cc(Cl)c(Oc3ccc(=O)n(CCO)c3)c(Cl)c2)c(=O)[nH]c1=O` [Example 32, 2-(3,5-dichloro-4-((1-(2-hydroxyethyl)-6-oxo-1,6-dihydropyridin-3-yl)oxy)phenyl)-3,5-dioxo-2,3,4,5-tetrahydro-1,2,4-triazine-6-carbonitrile], the EC50 is 22700 nM at TRα and 1520 nM on TRβ.
As to `O=c1[nH]c(=O)n(-c2cc(Cl)c(Oc3ccc(=O)n(Cc4ccccc4)c3)c(Cl)c2)nc1CO` [Example 33, 2-(4-((1-benzyl-6-oxo-1,6-dihydropyridin-3-yl)oxy)-3,5-dichlorophenyl)-6-(hydroxymethyl)-1,2,4-triazine-3,5(2H,4H)-dione], the results for the EC50 on TRα and on TRβ were 3230 nM and 231 nM, respectively.
